These results are taken from US20210333284A1, “METHODS AND MATERIALS FOR LARGE-SCALE ASSESSMENT OF LIGAND BINDING SELECTIVITY OF G-QUADRUPLEX RECOGNITION USING CUSTOM G4 MICROARRAYS” (Purdue Research Foundation, priority 2020, published 2021).

Test [1] concerns MYC G4 flanking variants 5′-NNGGGTGGGGAGGGTGGGNN-3′. As to the kind of experiment: G4 microarray competition with Cy5-PDS, flanking (tail) variants. Set-up: species or system human. Conditions: from reduction of Cy5-PDS binding in the presence of competitor. From the text: Whether the microarray platform could be used to reveal the G4-binding specificity of unlabeled molecules via a competition with Cy5-PDS binding was explored. Three example molecules, unlabeled PDS, TMPyP4 (a planar molecule that nonspecifically binds G4 structures^14), and DC-34 (a molecule that selectively binds the MYC G4^15) were examined. […] The binding of unlabeled DC-34 was examined (FIG. 4). There appear to be no features that are better-bound in the presence of DC-34. […] This is consistent with the observation that DC-34 binds the top and bottom surfaces of the G4 and makes specific contacts with purines in the tail sequences.^15 The general properties of features in which DC-34 reduced binding of Cy5-PDS (ratio of PDS/PDS+DC-34) were also examined. […]
DNA Microarray Binding Experiments DNA microarray experiments were performed and analyzed as described previously. […]
Data Processing and Analysis Molecule-bound microarrays were scanned with an Agilent G5761A SureScan Dx Microarray Scanner System to detect Cy5 signal at two laser settings (30 and 100 PMT). Spot intensities from microarray images were extracted using Agilent Feature Extraction Software and are reported as raw fluorescence intensities. […]

For the next test, the system named is MYC_14/23T G4. Nature of the test: G4 microarray competition with Cy5-PDS, MYC_14/23T. In kind it is binding, human. As to conditions: MYC_14/23T G4, 1 μM BMVC and 1 μM Cy5-PDS. The protocol: Custom G4 microarrays have been designed that contain a total of 19,249 G4 DNA sequences [31, the entirety of disclosure of which, including the supplemental information, is incorporated herein by reference]. The G4 microarrays were created by covalently attaching thousands of unique G4-forming DNA 60-mers to a glass surface. Pyridostatin (PDS) is a known G4-interactive compound. […] To test the binding selectivity of BMVC, competition experiments using custom G4 microarrays were performed. The addition of potassium-containing solution to G4-forming oligonucleotides induced G4 formation. […] After washing to remove the unbound Cy5-PDS and BMVC, the fluorescence intensities of Cy5-PDS bound to DNA oligonucleotides were detected using a fluorescence scanner. The binding selectivity of BMVC to different G4 structures was assessed by measuring the relative fluorescence intensity reduction of Cy5-PDS as BMVC concentration increased.
To determine the G4-binding selectivity of BMVC, the BMVC binding to known G4 structures was examined, including 7 well-studied MYC promoter G4 sequences, 15 other oncogene promoter G4 sequences, and 3 human telomeric G4 sequences (TABLE 4). BMVC competes with the binding of Cy5-PDS to most G4 sequences in a dose-dependent manner as indicated by reduced fluorescence intensities (FIG. 8a). […]

In test [2] the test system is parallel-stranded MYC_14/23T, MYC1234 and VEGF G4s. Nature of the test: 1D 1H NMR titration with parallel G4s. In kind it is binding, human. From the text: (§1) The binding selectivity of BMVC to G4 structures and flanking sequences was confirmed by NMR titration experiments of BMVC to different G4 sequences, including parallel-stranded MYC_14/23T G4 and its 5′- and 3′-flanking variants, VEGF and MYC1234 G4s, basket-type human telomeric G4 (wtTel22 in Na+), and hybrid type human telomeric G4 (Tel26 in K+) (FIG. 12). BMVC binds best to the MYC_14/23T G4, as indicated by well-resolved imino proton peaks for BMVC complexes (FIG. 12, panel a). […] In contrast, the 3′-end binding of BMVC is sensitive to the mutations at the 3′-flanking sequence, with a clear preference for the 3′-flanking T. In addition, BMVC prefers at least two flanking bases for a specific binding.
(§2) G4 DNA oligonucleotides were synthesized using β-cyanoethylphosphoramidite solid-phase chemistry (Applied Biosystem Expedite 8909), as described previously. NMR experiments were performed on a Bruker AV-III-500-HD equipped with a BBFO Z-gradient cryoprobe. DNA samples were heated to 95° C. for 5 min, then cooled slowly for G4 formation. For the 1D 1H NMR experiments, samples contained 100-250 μM DNA in an appropriate buffer solution with 10% D2O for the lock. The titrations were performed by adding increasing amounts of the compounds to the DNA samples in solution.

Test [3] concerns basket-type (wtTel22 in Na+) and hybrid-type (Tel26 in K+) human telomeric G4s. Nature of the test: 1D 1H NMR titration with telomeric G4s. In kind it is binding.
Excerpt: as §1, §2

Turning to `C[n+]1ccc(/C=C/c2ccc3[nH]c4ccc(/C=C/c5cc[n+](C)cc5)cc4c3c2)cc1.[I-].[I-]` [BMVC, 3,6-Bis(1-methyl-4-vinylpyridinium) carbazole diiodide], the “flanking sequence preference of competitor” value in test [1] was “strongly prefers the MYC G4 with the 3′-flanking T”. Moreover, in the test with MYC_14/23T G4, the “reduction of Cy5-PDS binding among all parallel G4s” value was “largest reduction”. Also, in test [2] (other parallel G4s), the “binding to MYC1234 and VEGF G4 by NMR titration” value is recorded as “bind well”. For the same molecule, the “binding to MYC_14/23T G4 by NMR titration” value in test [2] (well-resolved imino proton peaks, 95 mM K+, pH 7, 25° C.) is listed as “binds best”. Moreover, the “binding to basket-type or hybrid-type human telomeric G4s by NMR titration” value in test [3] is “did not show specific binding”.
